# Patent publication US20220220152A1, “BIVALENT ANTAGONISTS OF INHIBITORS OF APOPTOSIS PROTEINS” (Hepagene Therapeutics (HK) Limited, priority 2019, published 2022)
# Key:
# [1] = target: T1, cIAP2-BIR3 (Homo sapiens, UniProt Q13489); assay: cIAP2-BIR3 fluorescence polarization binding assay; conditions: FP, probe AbuRPFK-5FAM (SM5F) 5 nM, cIAP2-BIR3 80 nM, 60 min at 25° C.
# T1 construct: cIAP2-BIR3; purchased Reaction Biology APT-11-372
# Method in brief: (§1)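 Fluorescence polarization competition using 5-carboxyfluorescein-labelled peptide probe AbuRPFK-5FAM; protein and compound preincubated 15 min, probe added, then 60 min at 25° C.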
# [2] = target: T2, cIAP1-BIR3 (Homo sapiens, UniProt Q13490); assay: cIAP1-BIR3 fluorescence polarization binding assay; conditions: FP, probe AbuRPFK-5FAM (SM5F) 5 nM, cIAP1-BIR3 15 nM, 60 min at 25° C.
# T2 construct: cIAP1-BIR3; purchased Reaction Biology APT-11-370
# T2 sequence (Q13490 253-363 limits assumed): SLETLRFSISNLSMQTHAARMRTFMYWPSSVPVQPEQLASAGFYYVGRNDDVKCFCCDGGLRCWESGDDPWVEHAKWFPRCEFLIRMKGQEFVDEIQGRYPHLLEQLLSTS
# Method in brief: as §1
# [3] = target: T3, XIAP-BIR3 (Homo sapiens, UniProt P98170); assay: XIAP-BIR3 fluorescence polarization binding assay; conditions: FP, probe AbuRPFK-5FAM (SM5F) 5 nM, XIAP-BIR3 40 nM, 60 min at 25° C.
# T3 construct: XIAP-BIR3; purchased Reaction Biology APT-11-374
# T3 sequence (P98170 241-356 limits assumed): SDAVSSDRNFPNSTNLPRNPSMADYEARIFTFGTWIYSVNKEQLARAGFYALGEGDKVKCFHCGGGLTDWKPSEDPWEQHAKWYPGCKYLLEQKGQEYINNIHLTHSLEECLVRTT
# Method in brief: as §1
# T1 sequence (Q13489 238-349 limits assumed): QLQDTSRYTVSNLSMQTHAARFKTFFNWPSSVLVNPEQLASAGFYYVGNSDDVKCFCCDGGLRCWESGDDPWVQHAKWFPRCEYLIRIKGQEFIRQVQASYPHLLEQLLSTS
SMILES,IC50 [1] [nM],IC50 [2] [nM],IC50 [3] [nM]
"CN[C@@H](C)C(=O)N[C@H](C(=O)N1CCC[C@H]1C(=O)N[C@@H]1CCCc2c(OCCN3CCN(CCOc4cccc5c4CCC[C@H]5NC(=O)[C@@H]4CCCN4C(=O)[C@@H](NC(=O)[C@H](C)NC)C4CCCCC4)CC3)cccc21)C1CCCCC1 [Compound IX, (2S)-1-[(2S)-2-cyclohexyl-2-[(2S)-2-(methylamino)propanamido]acetyl]-N-[(1R)-5-{2-[4-(2-{[(5R)-5-[(2S)-1-[(2S)-2-cyclohexyl-2-[(2S)-2-(methylamino)propanamido]acetyl]pyrolidine-2-amido]-5,6,7,8-tetrahydronaphthalen-1-yl]oxy}ethyl)piperazin-1-yl]ethoxy}-1,2,3,4-tetrahydmnaphthalen-1-yl]pyrrolidine-2-carboxamide]",10 to 100,1 to 10,100 to 1000
"CC[C@H](NC(=O)[C@H](C)NC)C(=O)N1CCC[C@H]1C(=O)N[C@@H]1CCCc2c(-c3ccc(-c4cccc5c4CCC[C@H]5NC(=O)[C@@H]4CCCN4C(=O)[C@H](CC)NC(=O)[C@H](C)NC)cc3)cccc21 [III-I, (2S)-1-[(2S)-2-[(2S)-2-(methylamino)propanamido]butanoy]l-N-[(1R)-5-[4-[(5R)-5-[(2S)-1-[(2S)-2-[(2S)-2-(methylamino)propanamido]butanoyl]pyrrolidine-2-amido]-5,6,7,8-tetrahydronaphthalen-1-yl]phenyl]-1,2,3,4-tetrahydronaphthalen-1-yl]pyrrolidine-2-carboxamide]",10 to 100,1 to 10,10 to 100
"CN[C@@H](C)C(=O)N[C@H](C(=O)N1CCC[C@H]1C(=O)N[C@@H]1CCCc2cc(OCCOCCOc3ccc4c(c3)CCC[C@H]4NC(=O)[C@@H]3CCCN3C(=O)[C@@H](NC(=O)[C@H](C)NC)C3CCCCC3)ccc21)C1CCCCC1 [Compound II-D, (2S)-1-[(2S)-2-cyclohexyl-2-[(2S)-2-(methylamino)propanamido]acetyl]-N-[(1R)-6-[2-(2-[[(5R)-5-[(2S)-1-1(2S)-2-cyclohexyl-2-[(2S)-2-(methylamino)propanamido]acetyl]pyrrolidine-2-amido]-5,6,7,8-tetrahydronaphthalen-2-yl]oxy]ethoxy)ethoxyl-1,2,3,4-tetrahydronaphthalen-1-yl]pyrrolidine-2-carboxamide Formic Acid]",10 to 100,1 to 10,> 1000
"CN[C@@H](C)C(=O)N[C@H](C(=O)N1CCC[C@H]1C(=O)N[C@@H]1CCCc2c(NC(=O)c3cccc4c3CCC[C@H]4NC(=O)[C@@H]3CCCN3C(=O)[C@@H](NC(=O)[C@H](C)NC)C3CCCCC3)cccc21)C1CCCCC1 [Compound VII, (S)-1-((S)-2-Cyclohexyl-2-((S)-2-(methylamino)propanamido)acetyl)-N—((R)-5-(((R)-5-((S)-1-((S)-2-cyclohexyl-2-((S)-2-(methylamino)propanamido)acetyl)pyrrolidine-2-carboxamido)-5,6,7,8-tetrahydronaphthalen-1-yl)carbamoyl)-1,2,3,4-tetrahydronaphthalen-1-yl)pyrrolidine-2-carboxamide]",1 to 10,1 to 10,10 to 100
"CN[C@@H](C)C(=O)N[C@H](C(=O)N1CCC[C@H]1C(=O)N[C@@H]1CCCc2c(-c3cccc4c3CCC[C@H]4NC(=O)[C@@H]3CCCN3C(=O)[C@@H](NC(=O)[C@H](C)NC)C(C)(C)C)cccc21)C(C)(C)C [Compound V-J, (2S)-1-[(2S)-3,3-dimethyl-2-[(2S)-2-(methylamino)propanamido]butanoyl]-N-[(5R,5′R)-5′-[(2S)-[(2S)-3,3-dimethyl-2-[(2S)-2-(methylamino)propanamido]butanoyl]pyrolidine-2-amido]-5H,5′ H,6H,6′H,7H,7′H,8H,8′ H-[1,1′-binaphthalen]-5-yl]pyrrolidine-2-carboxamide]",10 to 100,1 to 10,10 to 100
"CN[C@@H](C)C(=O)N[C@H](C(=O)N1CCC[C@H]1C(=O)N[C@@H]1CCCc2c(Nc3cccc4c3CCC[C@H]4NC(=O)[C@@H]3CCCN3C(=O)[C@@H](NC(=O)[C@H](C)NC)C3CCCCC3)cccc21)C1CCCCC1 [Compound VI, (S)-1-((S)-2-cyclohexyl-2-((S)-2-(methylamino)propanamido)acetyl)-N—((R)-5-(((R)-5-((S)-1-((S)-2-cyclohexyl-2-((S)-2-(methylamino)propanamido)acetyl)pyrrolidine-2-carboxamido)-5,6,7,8-tetrahydronaphthalen-1-yl)amino)-1,2,3,4-tetrahydronaphthalen-1-yl)pyrrolidine-2-carboxamide]",10 to 100,1 to 10,10 to 100
"CN[C@@H](C)C(=O)N[C@H](C(=O)N1CCC[C@H]1C(=O)N[C@@H]1CCCc2c(-c3ccc4cc(-c5cccc6c5CCC[C@H]6NC(=O)[C@@H]5CCCN5C(=O)[C@@H](NC(=O)[C@H](C)NC)C5CCCCC5)ccc4c3)cccc21)C1CCCCC1 [Compound III-B, (2S)-1-[(2S)-2-Cyclohexyl-2-[(2S)-2-(methylamino)propanamido]acetyl]-N-[(1R)-5-{6-[(5R)-5-[(2S)-1-[(2S)-2-cyclohexyl-2-[(2S)-2-(methylamino)propanamido]acetyl]pyrrolidine-2-amido]-5,6,7,8-tetrahydronaphthalen-1-yl]naphthalen-2-yl}-1,2,3,4-tetrahydmnaphthalen-1-yl]pyrrolidine-2-carboxamide]",10 to 100,1 to 10,10 to 100
"CN[C@@H](C)C(=O)N[C@H](C(=O)N1CCC[C@H]1C(=O)N[C@@H]1CCCc2c(-c3cccc4c3CCC[C@H]4NC(=O)[C@@H]3CCCN3C(=O)[C@@H](NC(=O)[C@H](C)NC)C3CCCCC3)cccc21)C1CCCCC1 [Compound V-N, (2S)-1-[(2S)-2-cyclohexyl-2-[(2S)-2-(methylamino)propanamido]acetyl]-N-[(1R)-5-[(5R)-5-[(2S)-1-[(2S)-2-cyclohexyl-2-[(2S)-2-(methylamino)propanamido]acetyl]pyrolidine-2-amido]-5,6,7,8-tetrahydronaphthalen-1-yl]-1,2,3,4-tetrahydronaphthalen-1-yl]pyrrolidine-2-carboxamide]",1 to 10,1 to 10,1 to 10
"CN[C@@H](C)C(=O)N[C@H](C(=O)N1CCC[C@H]1C(=O)N[C@@H]1CCCc2cc(-c3ccc(-c4ccc5c(c4)CCC[C@H]5NC(=O)[C@@H]4CCCN4C(=O)[C@@H](NC(=O)[C@H](C)NC)C4CCCCC4)cc3)ccc21)C1CCCCC1 [Compound III-L, (2S)-1-[(2S)-2-cyclohexyl-2-[(2S)-2-(methylamino)propanamido]acetyl]-N-[(1R)-6-[4-[(5R)-5-[(2S)-1-[(2S)-2-cyclohexyl-2-[(2S)-2-(methylamino)propanamido]acetyl]pyrolidine-2-amido]-5,6,7,8-tetrahydronaphthalen-2-yl]phenyl]-1,2,3,4-tetrahydronaphthalen-1-yl]pyrrolidine-2-carboxamide]",100 to 1000,10 to 100,100 to 1000
